The values below are quoted from earlier work in patent US20060009471A1, “Amido compounds and their use as pharmaceuticals” (priority 2004, published 2006).

The data set addresses T1, 11βHSD1 in the eye (Homo sapiens, UniProt P28845).
T1 construct: host or cells: eye (non-pigmented epithelial cells) of healthy volunteers, in vivo
As to conditions: healthy volunteers, after seven days of carbenoxolone treatment.

T1 sequence (P28845 whole entry): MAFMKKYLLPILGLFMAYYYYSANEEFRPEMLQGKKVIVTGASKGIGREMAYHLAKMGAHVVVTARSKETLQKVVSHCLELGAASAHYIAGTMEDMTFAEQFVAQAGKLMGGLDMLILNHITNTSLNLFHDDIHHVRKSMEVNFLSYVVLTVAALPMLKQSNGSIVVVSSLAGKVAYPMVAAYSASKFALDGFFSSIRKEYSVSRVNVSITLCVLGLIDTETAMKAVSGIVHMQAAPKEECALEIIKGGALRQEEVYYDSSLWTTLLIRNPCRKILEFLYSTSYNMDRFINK

As for `CC1(C)[C@@H](OC(=O)CCC(=O)O)CC[C@]2(C)[C@H]3C(=O)C=C4[C@@H]5C[C@@](C)(C(=O)O)CC[C@]5(C)CC[C@@]4(C)[C@]3(C)CC[C@@H]12` [carbenoxolone], the IOP reduced is recorded as 18%.
